Results on 18 compounds are retold here after PubChem BioAssay AID182 (DTP/NCI, 2004).

Structures are written as SMILES. Inconclusive results and toxic doses are left out.

The experiment relates to BDF1 mice, P388/ADR leukemia ip, median survival T/C. Description: NCI In Vivo Anticancer Drug Screen. Data for tumor model P388 Leukemia resistant to Adriamycin; NSC 123127, Developed at Scr 06 and 41 (intraperitoneal) in B6D2F1 (BDF1) mice. The conditions noted are these: endpoint: median survival time, higher = longer survival. As for the experimental part:
The antitumor activity of compounds was measured in mice bearing transplantable tumors. Survival or tumor size were measured and the results are expressed as the measurement made in the treated group (T) divided by the measurement made in the vehicle treated control group (C). The tumor model used in this assay is P388 Leukemia resistant to Adriamycin; NSC 123127, Developed at Scr 06 and 41 (intraperitoneal) in B6D2F1 (BDF1) mice

On to `COc1cc2c[n+](C)c3c4cc5c(cc4ccc3c2cc1OC)OCO5`, for which the T/C is 123 % of control (dose: 28.8 mg/kg/injection, schedule: Q04DX003 (ip), vehicle: Klucel (hydroxypropylcellulose) (HPC)); 105 % of control (dose: 48.0 mg/kg/injection, schedule: Q04DX003 (ip), vehicle: Klucel (hydroxypropylcellulose) (HPC)); 107 % of control (dose: 55.0 mg/kg/injection, schedule: Q04DX003 (ip), vehicle: other); 124 % of control (dose: 80.0 mg/kg/injection, schedule: Q04DX003 (ip), vehicle: Klucel (hydroxypropylcellulose) (HPC)); 106 % of control (dose: 92.0 mg/kg/injection, schedule: Q04DX003 (ip), vehicle: other).
Regarding `COc1cccc2c1C(=O)c1c(O)c3c(c(O)c1C2=O)C[C@@](O)(C(=O)CO)C[C@@H]3OC1CC([N+](C)(C)C)C(O)C(C)O1` (stereo partly drawn), the T/C reads like this: (dose: 8.64 mg/kg/injection, schedule: Q04DX003 (ip), vehicle: water) 99 % of control; (dose: 14.4 mg/kg/injection, schedule: Q04DX003 (ip), vehicle: water) 99 % of control.
`COc1cc(O)c2c(c1)C(=O)c1cc3c(c(O)c1C2=O)C(OC1OC(C)C(O)C(O)C1OC)C(OC)C(C)(O)C3=O` (stereo not drawn): the T/C by setting is: (dose: 25.9 mg/kg/injection, schedule: Q01DX009 (ip), vehicle: Klucel (hydroxypropylcellulose) (HPC)) 96 % of control; (dose: 43.2 mg/kg/injection, schedule: Q01DX009 (ip), vehicle: Klucel (hydroxypropylcellulose) (HPC)) 96 % of control; (dose: 72.0 mg/kg/injection, schedule: Q01DX009 (ip), vehicle: Klucel (hydroxypropylcellulose) (HPC)) 99 % of control; (dose: 108.0 mg/kg/injection, schedule: Q04DX003 (ip), vehicle: Klucel (hydroxypropylcellulose) (HPC)) 100 % of control; (dose: 120.0 mg/kg/injection, schedule: Q01DX009 (ip), vehicle: Klucel (hydroxypropylcellulose) (HPC)) 103 % of control; (dose: 180.0 mg/kg/injection, schedule: Q04DX003 (ip), vehicle: Klucel (hydroxypropylcellulose) (HPC)) 105 % of control.
On to `O=CC(NC(=O)N(CCCl)N=O)C(O)C(O)C(O)CO` (stereo not drawn), for which the T/C (dose: 6.48 mg/kg/injection, schedule: Q04DX003 (ip), vehicle: saline) is 240 % of control; the T/C (dose: 10.8 mg/kg/injection, schedule: Q04DX003 (ip), vehicle: saline) was 553 % of control; the T/C (dose: 18.0 mg/kg/injection, schedule: Q04DX003 (ip), vehicle: saline) is 120 % of control.
Take `COc1cc(NS(C)(=O)=O)ccc1Nc1c2ccccc2nc2ccccc12`: the T/C by setting is: (dose: 3.6 mg/kg/injection, schedule: Q04DX003 (ip), vehicle: other) 123 % of control; (dose: 5.4 mg/kg/injection, schedule: Q04DX003 (ip), vehicle: clinical formulation) 106 % of control; (dose: 9.0 mg/kg/injection, schedule: Q04DX003 (ip), vehicle: clinical formulation) 114 % of control.
With `COc1cccc2c1C(=O)c1c(O)c3c(c(O)c1C2=O)C[C@@](O)(/C(C)=N/NC(=O)c1ccccc1)C[C@@H]3OC1CC(N)C(O)C(C)O1` (stereo partly drawn), the T/C by setting is: (dose: 6.5 mg/kg/injection, schedule: Q04DX003 (ip), vehicle: water) 107 % of control; (dose: 10.8 mg/kg/injection, schedule: Q04DX003 (ip), vehicle: water) 115 % of control; (dose: 18.0 mg/kg/injection, schedule: Q04DX003 (ip), vehicle: water) 105 % of control.
Turning to `CC(=O)[C@]1(O)Cc2c(O)c3c(c(O)c2[C@@H](OC2CC(N)C(O)C(C)O2)C1)C(=O)c1c(O)cccc1C3=O` (stereo partly drawn), the T/C is 108 % of control (dose: 0.32 mg/kg/injection, schedule: Q04DX003 (ip), vehicle: water); 118 % of control (dose: 0.39 mg/kg/injection, schedule: Q04DX003 (ip), vehicle: water); 88 % of control (dose: 0.54 mg/kg/injection, schedule: Q04DX003 (ip), vehicle: water); 123 % of control (dose: 0.65 mg/kg/injection, schedule: Q04DX003 (ip), vehicle: water).
As for `CC[C@H]1CN2CCc3cc(OC)c(OC)cc3[C@@H]2C[C@@H]1C[C@H]1NCCc2c1[nH]c1ccc(OC)cc21`, the T/C by setting is: (dose: 10.8 mg/kg/injection, schedule: Q04DX003 (ip), vehicle: acid diluted with saline) 108 % of control; (dose: 18.0 mg/kg/injection, schedule: Q04DX003 (ip), vehicle: acid diluted with saline) 107 % of control; (dose: 30.0 mg/kg/injection, schedule: Q04DX003 (ip), vehicle: acid diluted with saline) 110 % of control.
For the compound `CCC1(O)CC2CN(CCc3c([nH]c4ccccc34)C(C(=O)OC)(c3cc4c(cc3OC)N(C)C3C(O)(C(=O)NCCSSCCNC(=O)C5(O)C(O)C6(CC)C=CCN7CCC8(c9cc(C%10(C(=O)OC)CC%11CN(CCc%12c%10[nH]c%10ccccc%12%10)CC(O)(CC)C%11)c(OC)cc9N(C)C58)C76)C(O)C5(CC)C=CCN6CCC43C65)C2)C1` (stereo not drawn), the T/C (dose: 432.0 micrograms/kg/injection, schedule: Q04DX003 (ip), vehicle: saline) is 111 % of control; the T/C (dose: 720.0 micrograms/kg/injection, schedule: Q04DX003 (ip), vehicle: saline) is 124 % of control; the T/C (dose: 2000.0 micrograms/kg/injection, schedule: Q04DX003 (ip), vehicle: saline) was 116 % of control.
As to `COc1ccc(CC2C(=O)NC(C)C(=O)N(C)C3Cc4ccc(cc4)Oc4cc(ccc4O)CC(C(=O)NC(C)C(=O)NC(C)C(=O)N2C)N(C)C3=O)cc1` (stereo not drawn), the T/C (dose: 4.32 mg/kg/injection, schedule: Q04DX003 (ip), vehicle: other) is 109 % of control; the T/C (dose: 7.2 mg/kg/injection, schedule: Q04DX003 (ip), vehicle: other) was 94 % of control; the T/C (dose: 12.0 mg/kg/injection, schedule: Q04DX003 (ip), vehicle: other) is 88 % of control.
Take `COC1=C(N)C(=O)c2nc(-c3nc(C(=O)O)c(C)c(-c4ccc(OC)c(OC)c4O)c3N)ccc2C1=O`: the T/C by setting is: (dose: 144.0 micrograms/kg/injection, schedule: Q04DX003 (ip), vehicle: alkali diluted with saline) 120 % of control; (dose: 240.0 micrograms/kg/injection, schedule: Q04DX003 (ip), vehicle: alkali diluted with saline) 120 % of control; (dose: 400.0 micrograms/kg/injection, schedule: Q04DX003 (ip), vehicle: alkali diluted with saline) 122 % of control; (dose: 667.0 micrograms/kg/injection, schedule: Q04DX003 (ip), vehicle: alkali diluted with saline) 121 % of control.
Turning to `Nc1nncs1`, the T/C reads like this: (dose: 173.0 mg/kg/injection, schedule: Q04DX003 (ip), vehicle: other) 199 % of control; (dose: 288.0 mg/kg/injection, schedule: Q04DX003 (ip), vehicle: other) 90 % of control.
Regarding `O=C[C@@H](CO)O[C@H](C=O)n1cnc2c(=O)[nH]cnc21`, the T/C reads like this: (dose: 180.0 mg/kg/injection, schedule: Q04DX003 (ip), vehicle: water) 162 % of control; (dose: 300.0 mg/kg/injection, schedule: Q04DX003 (ip), vehicle: water) 203 % of control.
For the compound `S=c1nc[nH]c2nc[nH]c12`, the T/C runs as follows: (dose: 43.2 mg/kg/injection, schedule: Q01DX009 (ip), vehicle: alkali diluted with saline) 100 % of control; (dose: 72.0 mg/kg/injection, schedule: Q01DX009 (ip), vehicle: alkali diluted with saline) 105 % of control.
`O=NN(CCCl)C(=O)NCCCl`: the T/C was 169 % of control (dose: 13.0 mg/kg/injection, schedule: Q01DX001 (ip), vehicle: saline + alcohol); 499 % of control (dose: 21.6 mg/kg/injection, schedule: Q01DX001 (ip), vehicle: saline + alcohol); 499 % of control (dose: 36.0 mg/kg/injection, schedule: Q01DX001 (ip), vehicle: saline + alcohol).
For `O=c1[nH]cc(F)c(=O)[nH]1`, the T/C (dose: 21.6 mg/kg/injection, schedule: Q04DX003 (ip), vehicle: saline) is 150 % of control; the T/C (dose: 36.0 mg/kg/injection, schedule: Q04DX003 (ip), vehicle: saline) is 174 % of control; the T/C (dose: 60.0 mg/kg/injection, schedule: Q04DX003 (ip), vehicle: saline) was 192 % of control.
Turning to `COc1cccc2c1C(=N)c1c(O)c3c(c(O)c1C2=O)C[C@@](O)(C(C)=O)C[C@@H]3OC1CC(N)C(O)C(C)O1` (stereo partly drawn), the T/C is 99 % of control (dose: 3.46 mg/kg/injection, schedule: Q04DX003 (ip), vehicle: saline); 102 % of control (dose: 5.76 mg/kg/injection, schedule: Q04DX003 (ip), vehicle: saline); 115 % of control (dose: 9.6 mg/kg/injection, schedule: Q04DX003 (ip), vehicle: saline); 104 % of control (dose: 16.0 mg/kg/injection, schedule: Q04DX003 (ip), vehicle: saline).
For `COc1cc([C@@H]2c3cc4c(cc3[C@@H](OC3OC5COC(C)OC5C(O)C3O)[C@H]3COC(=O)[C@H]23)OCO4)cc(OC)c1O` (stereo partly drawn), the T/C is, setting by setting: (dose: 18.0 mg/kg/injection, schedule: Q04DX003 (ip), vehicle: Klucel (hydroxypropylcellulose) (HPC)) 110 % of control; (dose: 30.0 mg/kg/injection, schedule: Q04DX003 (ip), vehicle: Klucel (hydroxypropylcellulose) (HPC)) 119 % of control; (dose: 50.0 mg/kg/injection, schedule: Q04DX003 (ip), vehicle: Klucel (hydroxypropylcellulose) (HPC)) 112 % of control.
